The values that follow are results of earlier work, collected in patent US7235541B2, “Neurokinin antagonists for use as medicaments” (Astrazeneca AB, priority 2000, dated 2007).

Read-outs that look alike come from different tables or passages of the source. Peptide text beside a SMILES is read from it.

For data set [1] the following is noted: Forced swim test (depression model); only at 30 mg/kg bid; Vassout et al, Neuropeptides 1994.
For data set [2] the following is noted: Elevated plus-maze.
The conditions of data set [3]: Light-dark box.
The conditions of data set [4]: Marmoset human intruder; Walsh et al., Psychopharmacology 1995.
Setting [5] is: Teixeira et al., Eur J Pharmacol 1996.
[6] abbreviates: Stratton et al., Eur. J. Pharmacol. 1993.
[7] abbreviates: Walsh et al., Psychopharmacology 1995.

Take `Cc1cc(C)cc(C(=O)N2CC[C@H](NCc3ccnc4ccccc34)C[C@H]2Cc2ccccc2)c1` [CGP 49823]: the Outcome result in data set [1] is on record as “antidepressant”; the Outcome result in data set [2] (Vassout et al, Neuropeptides 1994) was “inactive”; the Outcome result (Social interaction test, Vassout et al, Neuropeptides 1994) is recorded as “anxiolytic”; the Outcome entry (Social interaction, File, Pharm Bio B 1997) is “anxiolytic”.
Turning to `CN(Cc1ccccc1)C(=O)[C@H](Cc1ccc2ccccc2c1)NC(=O)[C@@H]1C[C@@H](O)CN1C(=O)c1cn(C)c2ccccc12` [FK888], the Outcome result in data set [2] (setting [5]) is given as “anxiolytic”.
For `C[C@H](NC(=O)CNC(=O)C1CCCCC1)C(=O)N[C@H](Cc1c[nH]c2ccccc12)C(=O)N[C@@H](Cc1ccccc1)C(=O)N(C)C` [GR100679] (HELM PEPTIDE1{[O=C(C1CCCCC1)[*:2]].G.A.[dW].F.[CN(C)[*:1]]}$$$$V2.0), in data set [3] (setting [6]), the Outcome entry is reported as “anxiolytic”.
With `COC1(C[S@@+]([O-])c2ccccc2)CCN(CCc2c[nH]c3ccc(F)cc23)CC1` [GR159897], the Outcome entry in data set [4] and in data set [3] (setting [7]) was “anxiolytic” in each case.
With `CC(=O)NC1(c2ccccc2)CCN(CC[C@H](CN(C)C(=O)c2ccccc2)c2ccc(Cl)c(Cl)c2)CC1` [SR48968], the Outcome entry in data set [4], in data set [3] (setting [6]), in data set [3] (setting [7]) and in data set [2] (setting [5]) was “anxiolytic” in each case.
